Measured values reported in BindingDB's records for doi:10.1016/j.ejmech.2019.02.016 (National Health Research Institutes, 2019).

Assay: Inhibition of NS5A in HCV genotype 1b infected in human HuH7 replicon cells assessed as reduction in subgenomic viral RNA replication treated for 2 days followed by compound washout and subsequent compound dosing measured after 1 day by SEAP reporter gene assay

| EC50 [nM] | SMILES |
| --- | --- |
| 0.031 | CCCCC(=O)N[C@@H](C(=O)N1CCC[C@H]1c1ncc(-c2ccc(-c3ccc(-c4cnc([C@@H]5CCCN5C(=O)[C@H](NC(=O)CCCC)c5ccccc5)s4)cc3)cc2)s1)c1ccccc1 |
| 0.016 | CCC(=O)N[C@@H](C(=O)N1CCC[C@H]1c1ncc(-c2ccc(-c3ccc(-c4cnc([C@@H]5CCCN5C(=O)[C@H](NC(=O)CC)c5ccccc5)s4)cc3)cc2)s1)c1ccccc1 |
| 0.02 | CC(=O)N[C@@H](C(=O)N1CCC[C@H]1c1ncc(-c2ccc(-c3ccc(-c4cnc([C@@H]5CCCN5C(=O)[C@H](NC(C)=O)c5ccccc5)s4)cc3)cc2)s1)c1ccccc1 |
| 56 | COC(=O)N[C@H](C(=O)N1CCC[C@H]1c1ncc(-c2ccc(-c3ccc(-c4cnc([C@@H]5CCCN5C(=O)[C@@H](NC(=O)OC)C(C)C)s4)cc3)cc2)s1)C(C)C |
| 57 | CC[C@H](NC(=O)OC)C(=O)N1CCC[C@H]1c1ncc(-c2ccc(-c3ccc(-c4cnc([C@@H]5CCCN5C(=O)[C@H](CC)NC(=O)OC)s4)cc3)cc2)s1 |
| 471 | COC(=O)N[C@H](C(=O)N1CCC[C@H]1c1ncc(-c2ccc(-c3ccc(-c4cnc([C@@H]5CCCN5C(=O)[C@@H](NC(=O)OC)C(C)(C)C)s4)cc3)cc2)s1)C(C)(C)C |
| 358 | CCCC[C@@H](NC(=O)C1CC1)C(=O)N1CCC[C@H]1c1ncc(-c2ccc(-c3ccc(-c4cnc([C@@H]5CCCN5C(=O)[C@@H](CCCC)NC(=O)C5CC5)s4)cc3)cc2)s1 |
| 102 | CN1CCN(CCC(=O)N[C@H](C(=O)N2CCC[C@H]2c2ncc(-c3ccc(-c4ccc(-c5cnc([C@@H]6CCCN6C(=O)[C@H](NC(=O)CCN6CCN(C)CC6)c6ccccc6)s5)cc4)cc3)s2)c2ccccc2)CC1 |
| 6.9 | CN(C)CCC(=O)N[C@H](C(=O)N1CCC[C@H]1c1ncc(-c2ccc(-c3ccc(-c4cnc([C@@H]5CCCN5C(=O)[C@H](NC(=O)CCN(C)C)c5ccccc5)s4)cc3)cc2)s1)c1ccccc1 |
| 122 | O=C(N[C@H](C(=O)N1CCC[C@H]1c1ncc(-c2ccc(-c3ccc(-c4cnc([C@@H]5CCCN5C(=O)[C@H](NC(=O)c5ccsc5)c5ccccc5)s4)cc3)cc2)s1)c1ccccc1)c1ccsc1 |
| 2640 | O=C(N[C@H](C(=O)N1CCC[C@H]1c1ncc(-c2ccc(-c3ccc(-c4cnc([C@@H]5CCCN5C(=O)[C@H](NC(=O)c5ccccn5)c5ccccc5)s4)cc3)cc2)s1)c1ccccc1)c1ccccn1 |
| 1.1 | O=C(N[C@H](C(=O)N1CCC[C@H]1c1ncc(-c2ccc(-c3ccc(-c4cnc([C@@H]5CCCN5C(=O)[C@H](NC(=O)C5CCCC5)c5ccccc5)s4)cc3)cc2)s1)c1ccccc1)C1CCCC1 |
| 2.4 | CCCCCC(=O)N[C@H](C(=O)N1CCC[C@H]1c1ncc(-c2ccc(-c3ccc(-c4cnc([C@@H]5CCCN5C(=O)[C@H](NC(=O)CCCCC)c5ccccc5)s4)cc3)cc2)s1)c1ccccc1 |
| 0.2 | O=C(CCN1CCOCC1)N[C@@H](C(=O)N1CCC[C@H]1c1ncc(-c2ccc(-c3ccc(-c4cnc([C@@H]5CCCN5C(=O)[C@H](NC(=O)CCN5CCOCC5)c5ccccc5)s4)cc3)cc2)s1)c1ccccc1 |
| 0.017 | O=C(CCn1cccc1)N[C@@H](C(=O)N1CCC[C@H]1c1ncc(-c2ccc(-c3ccc(-c4cnc([C@@H]5CCCN5C(=O)[C@H](NC(=O)CCn5cccc5)c5ccccc5)s4)cc3)cc2)s1)c1ccccc1 |
| 0.08 | O=C(N[C@@H](C(=O)N1CCC[C@H]1c1ncc(-c2ccc(-c3ccc(-c4cnc([C@@H]5CCCN5C(=O)[C@H](NC(=O)c5ccoc5)c5ccccc5)s4)cc3)cc2)s1)c1ccccc1)c1ccoc1 |
| 0.13 | O=C(Cc1ccccc1)N[C@@H](C(=O)N1CCC[C@H]1c1ncc(-c2ccc(-c3ccc(-c4cnc([C@@H]5CCCN5C(=O)[C@H](NC(=O)Cc5ccccc5)c5ccccc5)s4)cc3)cc2)s1)c1ccccc1 |
| 0.003 | O=C(N[C@@H](C(=O)N1CCC[C@H]1c1ncc(-c2ccc(-c3ccc(-c4cnc([C@@H]5CCCN5C(=O)[C@H](NC(=O)C5CC5)c5ccccc5)s4)cc3)cc2)s1)c1ccccc1)C1CC1 |

| EC50 [nM] | SMILES |
| --- | --- |
| 0.013 | CCCC(=O)N[C@@H](C(=O)N1CCC[C@H]1c1ncc(-c2ccc(-c3ccc(-c4cnc([C@@H]5CCCN5C(=O)[C@H](NC(=O)CCC)c5ccccc5)s4)cc3)cc2)s1)c1ccccc1 |
| 3.4 | CS(=O)(=O)N[C@@H](C(=O)N1CCC[C@H]1c1ncc(-c2ccc(-c3ccc(-c4cnc([C@@H]5CCCN5C(=O)[C@H](NS(C)(=O)=O)c5ccccc5)s4)cc3)cc2)s1)c1ccccc1 |
| 237 | CCCC[C@H](NC(=O)OC)C(=O)N1CCC[C@H]1c1ncc(-c2ccc(-c3ccc(-c4cnc([C@@H]5CCCN5C(=O)[C@H](CCCC)NC(=O)OC)s4)cc3)cc2)s1 |
| 4 | O=C(CCN1CCCC1)N[C@@H](C(=O)N1CCC[C@H]1c1ncc(-c2ccc(-c3ccc(-c4cnc([C@@H]5CCCN5C(=O)[C@H](NC(=O)CCN5CCCC5)c5ccccc5)s4)cc3)cc2)s1)c1ccccc1 |
| 115 | C[C@@H](NC(=O)C1CC1)C(=O)N1CCC[C@H]1c1ncc(-c2ccc(-c3ccc(-c4cnc([C@@H]5CCCN5C(=O)[C@@H](C)NC(=O)C5CC5)s4)cc3)cc2)s1 |
| 0.89 | O=C(CCN1CCCCC1)N[C@@H](C(=O)N1CCC[C@H]1c1ncc(-c2ccc(-c3ccc(-c4cnc([C@@H]5CCCN5C(=O)[C@H](NC(=O)CCN5CCCCC5)c5ccccc5)s4)cc3)cc2)s1)c1ccccc1 |
| 0.02 | O=C(N[C@@H](C(=O)N1CCC[C@H]1c1ncc(-c2ccc(-c3ccc(-c4cnc([C@@H]5CCCN5C(=O)[C@H](NC(=O)N5CCOCC5)c5ccccc5)s4)cc3)cc2)s1)c1ccccc1)N1CCOCC1 |
| 0.009 | CC(C)C(=O)N[C@@H](C(=O)N1CCC[C@H]1c1ncc(-c2ccc(-c3ccc(-c4cnc([C@@H]5CCCN5C(=O)[C@H](NC(=O)C(C)C)c5ccccc5)s4)cc3)cc2)s1)c1ccccc1 |
| 149 | CS(=O)(=O)N[C@H](C(=O)N1CCC[C@H]1c1ncc(-c2ccc(-c3ccc(-c4cnc([C@@H]5CCCN5C(=O)[C@H](NS(C)(=O)=O)c5ccccc5)s4)cc3)cc2)s1)c1ccccc1 |
| 0.37 | O=C(N[C@H](C(=O)N1CCC[C@H]1c1ncc(-c2ccc(-c3ccc(-c4cnc([C@@H]5CCCN5C(=O)[C@H](NC(=O)c5ccncc5)c5ccccc5)s4)cc3)cc2)s1)c1ccccc1)c1ccncc1 |
| 1600 | CC(C)(C)[C@@H](NC(=O)C1CC1)C(=O)N1CCC[C@H]1c1ncc(-c2ccc(-c3ccc(-c4cnc([C@@H]5CCCN5C(=O)[C@H](NC(=O)C5CC5)C(C)(C)C)s4)cc3)cc2)s1 |
| 22 | CCN(CC)CCC(=O)N[C@H](C(=O)N1CCC[C@H]1c1ncc(-c2ccc(-c3ccc(-c4cnc([C@@H]5CCCN5C(=O)[C@H](NC(=O)CCN(CC)CC)c5ccccc5)s4)cc3)cc2)s1)c1ccccc1 |
| 2.9 | O=C(Cc1ccccc1)N[C@H](C(=O)N1CCC[C@H]1c1ncc(-c2ccc(-c3ccc(-c4cnc([C@@H]5CCCN5C(=O)[C@H](NC(=O)Cc5ccccc5)c5ccccc5)s4)cc3)cc2)s1)c1ccccc1 |
| 0.13 | O=C(N[C@@H](C(=O)N1CCC[C@H]1c1ncc(-c2ccc(-c3ccc(-c4cnc([C@@H]5CCCN5C(=O)[C@H](NC(=O)c5cccnc5)c5ccccc5)s4)cc3)cc2)s1)c1ccccc1)c1cccnc1 |
| 0.59 | CC(=O)N[C@H](C(=O)N1CCC[C@H]1c1ncc(-c2ccc(-c3ccc(-c4cnc([C@@H]5CCCN5C(=O)[C@H](NC(C)=O)c5ccccc5)s4)cc3)cc2)s1)c1ccccc1 |
| 0.31 | CC(C)C(=O)N[C@H](C(=O)N1CCC[C@H]1c1ncc(-c2ccc(-c3ccc(-c4cnc([C@@H]5CCCN5C(=O)[C@H](NC(=O)C(C)C)c5ccccc5)s4)cc3)cc2)s1)c1ccccc1 |
| 0.011 | O=C(N[C@@H](C(=O)N1CCC[C@H]1c1ncc(-c2ccc(-c3ccc(-c4cnc([C@@H]5CCCN5C(=O)[C@H](NC(=O)c5ccncc5)c5ccccc5)s4)cc3)cc2)s1)c1ccccc1)c1ccncc1 |
